Measured values as given in PubChem BioAssay (NCI).
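Interpolation was linear, between the two tested concentrations surrounding the appropriate level; five concentrations were tested over 48 hours in 96-well plates. The concentration for full growth arrest is given as TGI.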

Assays:
Assay in all cases: NCI tumour cell line growth inhibition, 48 h
786-0 renal = system: 786-0 renal
K-562 leukemia = system: K-562 leukemia
NCI/ADR-RES ovarian = system: NCI/ADR-RES ovarian
SK-OV-3 ovarian = system: SK-OV-3 ovarian
UACC-257 melanoma = system: UACC-257 melanoma
NCI-H23 lung = system: NCI-H23 lung
LOX IMVI melanoma = system: LOX IMVI melanoma
UACC-62 melanoma = system: UACC-62 melanoma
MCF7 breast = system: MCF7 breast
HS 578T breast = system: HS 578T breast
ACHN renal = system: ACHN renal
MDA-N = system: MDA-N
SN12C renal = system: SN12C renal
NCI-H460 lung = system: NCI-H460 lung
OVCAR-4 ovarian = system: OVCAR-4 ovarian
DU-145 prostate = system: DU-145 prostate
A498 renal = system: A498 renal
HCT-116 colon = system: HCT-116 colon
MALME-3M melanoma = system: MALME-3M melanoma
RPMI-8226 leukemia = system: RPMI-8226 leukemia
KM12 colon = system: KM12 colon
COLO 205 colon = system: COLO 205 colon
OVCAR-8 ovarian = system: OVCAR-8 ovarian
NCI-H522 lung = system: NCI-H522 lung
A549 NSCLC = system: A549 NSCLC
EKVX NSCLC = system: EKVX NSCLC
HOP-92 NSCLC = system: HOP-92 NSCLC
RXF 393 renal = system: RXF 393 renal
HL-60(TB) leukemia = system: HL-60(TB) leukemia
SF-295 CNS = system: SF-295 CNS
SW-620 colon = system: SW-620 colon
HCC-2998 colon = system: HCC-2998 colon
OVCAR-5 ovarian = system: OVCAR-5 ovarian
M14 melanoma = system: M14 melanoma
SK-MEL-28 melanoma = system: SK-MEL-28 melanoma
HOP-62 NSCLC = system: HOP-62 NSCLC
OVCAR-3 ovarian = system: OVCAR-3 ovarian
TK-10 renal = system: TK-10 renal
CCRF-CEM leukemia = system: CCRF-CEM leukemia
HCT-15 colon = system: HCT-15 colon
SNB-19 CNS = system: SNB-19 CNS
U251 CNS = system: U251 CNS
HT29 colon = system: HT29 colon
SR leukemia = system: SR leukemia
MDA-MB-231 breast = system: MDA-MB-231 breast
CAKI-1 renal = system: CAKI-1 renal
SF-268 CNS = system: SF-268 CNS
T-47D breast = system: T-47D breast
NCI-H226 lung = system: NCI-H226 lung
SK-MEL-5 melanoma = system: SK-MEL-5 melanoma
SNB-75 CNS = system: SNB-75 CNS
MDA-MB-435 = system: MDA-MB-435
PC-3 prostate = system: PC-3 prostate
SF-539 CNS = system: SF-539 CNS
IGROV1 ovarian = system: IGROV1 ovarian
SK-MEL-2 melanoma = system: SK-MEL-2 melanoma
UO-31 renal = system: UO-31 renal
MOLT-4 leukemia = system: MOLT-4 leukemia

Q: With `COc1ccc(-c2coc3cc(OC)cc(O)c3c2=O)cc1` as the molecule, how does the TGI (786-0 renal) read?
A: The TGI was over 100 µM.

Q: What about the TGI (K-562 leukemia) of the same molecule?
A: Its TGI is over 100 µM.

Q: And the TGI (NCI/ADR-RES ovarian)?
A: Its TGI is over 100 µM.

Q: And the TGI (SK-OV-3 ovarian)?
A: The TGI was over 100 µM.

Q: And the TGI (UACC-257 melanoma)?
A: The TGI was over 100 µM.

Q: What about the TGI (NCI-H23 lung) of the same molecule?
A: Its TGI is over 100 µM.

Q: What about the TGI (LOX IMVI melanoma) of the same molecule?
A: Its TGI is over 100 µM.

Q: What about the TGI (UACC-62 melanoma) of the same molecule?
A: Its TGI is over 100 µM.

Q: And the TGI (MCF7 breast)?
A: The TGI was over 100 µM.

Q: What about the TGI (HS 578T breast) of the same molecule?
A: Its TGI is over 100 µM.

Q: What about the TGI (ACHN renal) of the same molecule?
A: Its TGI is over 100 µM.

Q: And the TGI (MDA-N)?
A: The TGI was over 100 µM.

Q: What about the TGI (SN12C renal) of the same molecule?
A: Its TGI is over 100 µM.

Q: And the TGI (NCI-H460 lung)?
A: The TGI was over 100 µM.

Q: And the TGI (OVCAR-4 ovarian)?
A: Its TGI is over 100 µM.

Q: And the TGI (DU-145 prostate)?
A: Its TGI is over 100 µM.

Q: And the TGI (A498 renal)?
A: The TGI was 89.1 µM.

Q: And the TGI (HCT-116 colon)?
A: The TGI was over 100 µM.

Q: What about the TGI (MALME-3M melanoma) of the same molecule?
A: The TGI was over 100 µM.

Q: What about the TGI (RPMI-8226 leukemia) of the same molecule?
A: Its TGI is over 100 µM.

Q: What about the TGI (KM12 colon) of the same molecule?
A: The TGI was over 100 µM.

Q: What about the TGI (COLO 205 colon) of the same molecule?
A: Its TGI is over 100 µM.

Q: What about the TGI (OVCAR-8 ovarian) of the same molecule?
A: The TGI was over 100 µM.

Q: And the TGI (NCI-H522 lung)?
A: The TGI was over 100 µM.

Q: What about the TGI (A549 NSCLC) of the same molecule?
A: The TGI was over 100 µM.

Q: And the TGI (EKVX NSCLC)?
A: Its TGI is over 100 µM.

Q: What about the TGI (HOP-92 NSCLC) of the same molecule?
A: Its TGI is 94.6 µM.

Q: And the TGI (RXF 393 renal)?
A: Its TGI is 83.1 µM.

Q: What about the TGI (HL-60(TB) leukemia) of the same molecule?
A: The TGI was over 100 µM.

Q: What about the TGI (SF-295 CNS) of the same molecule?
A: The TGI was over 100 µM.

Q: And the TGI (SW-620 colon)?
A: Its TGI is over 100 µM.

Q: And the TGI (HCC-2998 colon)?
A: Its TGI is over 100 µM.

Q: And the TGI (OVCAR-5 ovarian)?
A: Its TGI is over 100 µM.

Q: What about the TGI (M14 melanoma) of the same molecule?
A: Its TGI is over 100 µM.

Q: What about the TGI (SK-MEL-28 melanoma) of the same molecule?
A: The TGI was over 100 µM.

Q: And the TGI (HOP-62 NSCLC)?
A: The TGI was over 100 µM.

Q: What about the TGI (OVCAR-3 ovarian) of the same molecule?
A: Its TGI is over 100 µM.

Q: What about the TGI (TK-10 renal) of the same molecule?
A: Its TGI is 84.4 µM.

Q: What about the TGI (CCRF-CEM leukemia) of the same molecule?
A: Its TGI is over 100 µM.

Q: And the TGI (HCT-15 colon)?
A: Its TGI is over 100 µM.

Q: What about the TGI (SNB-19 CNS) of the same molecule?
A: Its TGI is over 100 µM.

Q: And the TGI (U251 CNS)?
A: The TGI was over 100 µM.

Q: And the TGI (HT29 colon)?
A: The TGI was over 100 µM.

Q: And the TGI (SR leukemia)?
A: The TGI was over 100 µM.

Q: What about the TGI (MDA-MB-231 breast) of the same molecule?
A: The TGI was over 100 µM.

Q: And the TGI (CAKI-1 renal)?
A: Its TGI is over 100 µM.

Q: What about the TGI (SF-268 CNS) of the same molecule?
A: The TGI was over 100 µM.

Q: And the TGI (T-47D breast)?
A: Its TGI is over 100 µM.

Q: What about the TGI (NCI-H226 lung) of the same molecule?
A: The TGI was over 100 µM.

Q: And the TGI (SK-MEL-5 melanoma)?
A: The TGI was over 100 µM.

Q: And the TGI (SNB-75 CNS)?
A: Its TGI is over 100 µM.

Q: And the TGI (MDA-MB-435)?
A: The TGI was over 100 µM.

Q: What about the TGI (PC-3 prostate) of the same molecule?
A: The TGI was over 100 µM.

Q: What about the TGI (SF-539 CNS) of the same molecule?
A: The TGI was over 100 µM.

Q: And the TGI (IGROV1 ovarian)?
A: Its TGI is over 100 µM.

Q: With `CCN(CC)CC(O)C1CCC(c2ccccc2)CC1` (stereo unspecified) as the molecule, how does the TGI (786-0 renal) read?
A: The TGI was 47.6 µM.

Q: And the TGI (K-562 leukemia)?
A: The TGI was over 100 µM.

Q: What about the TGI (NCI/ADR-RES ovarian) of the same molecule?
A: Its TGI is over 100 µM.

Q: And the TGI (SK-OV-3 ovarian)?
A: Its TGI is 36.6 µM.

Q: What about the TGI (UACC-257 melanoma) of the same molecule?
A: The TGI was 50.5 µM.

Q: And the TGI (NCI-H23 lung)?
A: The TGI was over 100 µM.

Q: What about the TGI (LOX IMVI melanoma) of the same molecule?
A: The TGI was 42.1 µM.

Q: And the TGI (UACC-62 melanoma)?
A: The TGI was 30.9 µM.

Q: And the TGI (MCF7 breast)?
A: Its TGI is 84.6 µM.

Q: And the TGI (HS 578T breast)?
A: Its TGI is over 100 µM.

Q: What about the TGI (ACHN renal) of the same molecule?
A: Its TGI is 57.5 µM.

Q: And the TGI (MDA-N)?
A: The TGI was 41.8 µM.

Q: And the TGI (SK-MEL-2 melanoma)?
A: The TGI was 37.4 µM.

Q: And the TGI (SN12C renal)?
A: Its TGI is over 100 µM.

Q: What about the TGI (NCI-H460 lung) of the same molecule?
A: Its TGI is 85.5 µM.

Q: What about the TGI (DU-145 prostate) of the same molecule?
A: The TGI was over 100 µM.

Q: What about the TGI (A498 renal) of the same molecule?
A: Its TGI is 42.9 µM.

Q: And the TGI (HCT-116 colon)?
A: The TGI was over 100 µM.

Q: And the TGI (MALME-3M melanoma)?
A: The TGI was 32.3 µM.

Q: And the TGI (RPMI-8226 leukemia)?
A: The TGI was 39 µM.

Q: What about the TGI (KM12 colon) of the same molecule?
A: The TGI was 71.3 µM.

Q: What about the TGI (COLO 205 colon) of the same molecule?
A: Its TGI is 29.2 µM.

Q: And the TGI (OVCAR-8 ovarian)?
A: Its TGI is 59.7 µM.

Q: And the TGI (NCI-H522 lung)?
A: The TGI was 43.1 µM.

Q: What about the TGI (A549 NSCLC) of the same molecule?
A: Its TGI is over 100 µM.

Q: What about the TGI (EKVX NSCLC) of the same molecule?
A: Its TGI is over 100 µM.

Q: And the TGI (HOP-92 NSCLC)?
A: The TGI was 86.9 µM.

Q: What about the TGI (RXF 393 renal) of the same molecule?
A: Its TGI is 45.1 µM.

Q: What about the TGI (HL-60(TB) leukemia) of the same molecule?
A: The TGI was 58 µM.

Q: What about the TGI (SF-295 CNS) of the same molecule?
A: The TGI was 36.6 µM.

Q: What about the TGI (SW-620 colon) of the same molecule?
A: Its TGI is 80.9 µM.

Q: What about the TGI (HCC-2998 colon) of the same molecule?
A: Its TGI is 11.5 µM.

Q: And the TGI (OVCAR-5 ovarian)?
A: Its TGI is 88.9 µM.

Q: What about the TGI (M14 melanoma) of the same molecule?
A: Its TGI is 80.4 µM.

Q: What about the TGI (SK-MEL-28 melanoma) of the same molecule?
A: Its TGI is 48.9 µM.

Q: And the TGI (HOP-62 NSCLC)?
A: Its TGI is over 100 µM.

Q: And the TGI (OVCAR-3 ovarian)?
A: The TGI was over 100 µM.

Q: And the TGI (TK-10 renal)?
A: The TGI was 31.2 µM.

Q: And the TGI (CCRF-CEM leukemia)?
A: The TGI was 82.6 µM.

Q: And the TGI (HCT-15 colon)?
A: Its TGI is 42.3 µM.

Q: What about the TGI (UO-31 renal) of the same molecule?
A: The TGI was 32.3 µM.

Q: And the TGI (SNB-19 CNS)?
A: The TGI was over 100 µM.

Q: And the TGI (U251 CNS)?
A: The TGI was 62.7 µM.

Q: What about the TGI (HT29 colon) of the same molecule?
A: Its TGI is 47.7 µM.

Q: And the TGI (MDA-MB-231 breast)?
A: The TGI was 37.6 µM.

Q: And the TGI (CAKI-1 renal)?
A: Its TGI is 42.2 µM.

Q: And the TGI (MOLT-4 leukemia)?
A: The TGI was over 100 µM.

Q: And the TGI (SF-268 CNS)?
A: Its TGI is over 100 µM.

Q: What about the TGI (T-47D breast) of the same molecule?
A: The TGI was over 100 µM.

Q: What about the TGI (NCI-H226 lung) of the same molecule?
A: Its TGI is 33.3 µM.

Q: What about the TGI (SK-MEL-5 melanoma) of the same molecule?
A: Its TGI is 30.4 µM.

Q: What about the TGI (SNB-75 CNS) of the same molecule?
A: The TGI was 64.4 µM.

Q: And the TGI (MDA-MB-435)?
A: Its TGI is 40.2 µM.

Q: What about the TGI (PC-3 prostate) of the same molecule?
A: Its TGI is over 100 µM.

Q: What about the TGI (SF-539 CNS) of the same molecule?
A: Its TGI is 40.2 µM.

Q: What about the TGI (IGROV1 ovarian) of the same molecule?
A: The TGI was over 100 µM.
